Some test systems named below: UACC-257 melanoma; 786-0 renal; NCI/ADR-RES ovarian; OVCAR-8 ovarian; K-562 leukemia; TK-10 renal; U251 CNS; NCI-H460 lung; SF-539 CNS; OVCAR-4 ovarian.
Holding throughout (assay): DTP human tumour cell line panel, 48 h

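Tested at 5 concentrations; 48 h exposure; 96-well plates; endpoints linearly interpolated, else capped at highest concentration. The concentration for 50% growth inhibition is given as GI50. Definition used: TGI = concentration required for complete inhibition of growth.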

A word on the GI50: it is the concentration at which growth is held to half of that of the control. What is called TGI is the concentration giving total growth inhibition. A high value points to less potent growth arrest. For `CCOC(=O)c1cc(C(=O)c2cc(OC)c(OC)c(OC)c2)n2c1ccc1ccccc12`, the GI50 in the test on UACC-257 melanoma was 2.27 µM; in the test on 786-0 renal, 0.693 µM; in the test on NCI/ADR-RES ovarian, 0.172 µM; in the test with OVCAR-8 ovarian it was 0.489 µM; with K-562 leukemia, 0.0604 µM; with TK-10 renal it was 2.37 µM. The GI50 in the test with U251 CNS was 0.428 µM; in the test on NCI-H460 lung it was 0.313 µM; with SF-539 CNS, 0.216 µM. The TGI with UACC-257 melanoma, with 786-0 renal, in the test on NCI/ADR-RES ovarian, in the test on OVCAR-8 ovarian, with K-562 leukemia and with TK-10 renal was over 100 µM each time. Further, the TGI in the test with U251 CNS is over 100 µM; in the test with NCI-H460 lung it was over 100 µM; in the test on SF-539 CNS it was 0.723 µM.

With `COC(=O)c1ccccc1N1C(=O)Cc2ccccc2C1=O`, the TGI in the test on UACC-257 melanoma, in the test with 786-0 renal, with OVCAR-8 ovarian, in the test with K-562 leukemia, with TK-10 renal and with U251 CNS was over 100 µM each time. In addition, the TGI in the test on SF-539 CNS was over 100 µM.

Turning to `Nc1nc(N)c(-c2ccccc2)c(C(=O)Nc2ccccc2)n1`, the TGI in the test on OVCAR-4 ovarian, in the test with UACC-257 melanoma, in the test on 786-0 renal, in the test on OVCAR-8 ovarian, in the test with K-562 leukemia and in the test with TK-10 renal was over 100 µM in each case. In addition, the TGI in the test with U251 CNS, in the test with NCI-H460 lung and in the test with SF-539 CNS was over 100 µM throughout.

For `COc1ccc2cc(C(=O)/C=C/c3ccc(N(C)C)cc3)ccc2c1`, the GI50 was 81.7 µM in the test with OVCAR-4 ovarian; 36.7 µM in the test with UACC-257 melanoma; over 100 µM in the test on 786-0 renal; 49.8 µM in the test on NCI/ADR-RES ovarian; over 100 µM with OVCAR-8 ovarian; over 100 µM in the test with K-562 leukemia. The GI50 is 43.9 µM in the test with TK-10 renal, 58.9 µM in the test with U251 CNS and 62.5 µM in the test with NCI-H460 lung. The TGI with OVCAR-4 ovarian, in the test with UACC-257 melanoma, with 786-0 renal, in the test with NCI/ADR-RES ovarian, in the test with OVCAR-8 ovarian and in the test on K-562 leukemia was over 100 µM throughout. In addition, the TGI in the test with TK-10 renal, with U251 CNS and in the test on NCI-H460 lung was over 100 µM each time.

As for `COc1ccc(NC(=O)CC/C(CC(=O)c2ccco2)=N/NC(N)=S)cc1`, the TGI with OVCAR-4 ovarian, in the test with UACC-257 melanoma, in the test on 786-0 renal, in the test on OVCAR-8 ovarian, in the test with K-562 leukemia and in the test on TK-10 renal was over 100 µM throughout. Besides, the TGI in the test with U251 CNS, with NCI-H460 lung and with SF-539 CNS was over 100 µM throughout.

Consider `Cc1cc(Nc2ncc3c(n2)N(C)C(=O)N(c2cc(NC(=O)c4cccc(C(F)(F)F)c4)ccc2C)C3)n(C)n1`, for which the GI50 with UACC-257 melanoma is 0.0197 µM; in the test with 786-0 renal it was 0.0599 µM; in the test with NCI/ADR-RES ovarian, 0.97 µM; in the test on K-562 leukemia, under 0.01 µM; in the test on U251 CNS it was 0.0317 µM; with NCI-H460 lung, 0.0832 µM. Also, in the test on SF-539 CNS, the GI50 was 0.0621 µM. Further, the TGI in the test on UACC-257 melanoma is 0.125 µM; with 786-0 renal, over 46.4 µM; with NCI/ADR-RES ovarian, over 31.6 µM; in the test on K-562 leukemia, over 46.4 µM; with U251 CNS it was over 31.6 µM; with NCI-H460 lung, over 46.4 µM. In the test on SF-539 CNS, this compound returned a TGI of 0.68 µM.

On to `CCCCNC(=O)C1C(=O)N(CCCC)C(=O)/C1=N\N` (centres undefined), for which the TGI in the test with OVCAR-4 ovarian, in the test on UACC-257 melanoma, with 786-0 renal, in the test with OVCAR-8 ovarian, in the test with K-562 leukemia and in the test with TK-10 renal was over 100 µM throughout. The TGI in the test on U251 CNS, with NCI-H460 lung and in the test with SF-539 CNS was over 100 µM throughout.

`CCOC(=O)C(N=C(c1ccccc1)c1ccccc1)N(C(=O)OC(C)(C)C)C(=O)OC(C)(C)C` (centres undefined): the TGI in the test on OVCAR-4 ovarian, in the test on UACC-257 melanoma, in the test on 786-0 renal, in the test on OVCAR-8 ovarian, with K-562 leukemia and in the test with TK-10 renal was over 100 µM each time. Besides, the TGI with U251 CNS and with SF-539 CNS was over 100 µM in each case.

As for `C=C1C(=O)O[C@H]2[C@H]1CC/C(C=Nc1c(N)cc(C(F)(F)F)cc1C(F)(F)F)=C\CC[C@@]1(C)O[C@@H]21`, the GI50 with OVCAR-4 ovarian is 1.52 µM; with UACC-257 melanoma it was 1.59 µM; with 786-0 renal it was 2.04 µM; in the test on NCI/ADR-RES ovarian, 2 µM; in the test with OVCAR-8 ovarian, 1.79 µM; in the test with K-562 leukemia, 1.24 µM. Also, the GI50 in the test on TK-10 renal was 1.38 µM; with U251 CNS, 1.56 µM; with NCI-H460 lung, 1.53 µM. Further, the TGI in the test on OVCAR-4 ovarian stood at 3.05 µM; in the test with UACC-257 melanoma, 3.14 µM; in the test with 786-0 renal, 4.11 µM; in the test with NCI/ADR-RES ovarian it was 5.75 µM; in the test with OVCAR-8 ovarian it was 9.85 µM; in the test on K-562 leukemia it was 9.53 µM. For the same compound, the TGI came out at 2.69 µM in the test with TK-10 renal, 2.98 µM in the test with U251 CNS and 3.38 µM in the test on NCI-H460 lung.

Consider `COc1cc2c(cc1OC)CC(=O)Nc1cc(OC)c(OC)cc1CC2`, for which the TGI in the test on OVCAR-4 ovarian, in the test on UACC-257 melanoma, with 786-0 renal, in the test with OVCAR-8 ovarian, in the test on K-562 leukemia and in the test with TK-10 renal was over 100 µM each time. The TGI is over 100 µM with U251 CNS, over 100 µM in the test on NCI-H460 lung and 97.2 µM in the test on SF-539 CNS.

Regarding `Nc1nc(Cl)cc(NCC(O)CO)n1` (centres undefined), the TGI with OVCAR-4 ovarian, in the test on UACC-257 melanoma, in the test with 786-0 renal, in the test with OVCAR-8 ovarian, in the test with K-562 leukemia and in the test on TK-10 renal was over 100 µM each time. In addition, the TGI in the test on U251 CNS, in the test with NCI-H460 lung and in the test with SF-539 CNS was over 100 µM in each case.

On to `COc1cc2c(c(OC)c1OC)-c1ccc(OC)c(=O)cc1[C@@H](NC(C)=O)CC2`, for which the concentration for total growth inhibition (TGI) in the test with OVCAR-4 ovarian, in the test on 786-0 renal, in the test on OVCAR-8 ovarian and in the test with TK-10 renal was over 100 µM throughout. Further, the GI50 was 0.488 µM in the test with NCI/ADR-RES ovarian, 1.35 µM in the test on OVCAR-8 ovarian, over 100 µM in the test on TK-10 renal and 0.625 µM in the test on NCI-H460 lung.

On to `CCC(O)C1Cc2c(C)cc3c(c2O1)C(=O)c1ccccc1C3=O` (centres undefined), for which the TGI in the test with OVCAR-4 ovarian is over 100 µM; with UACC-257 melanoma it was over 100 µM; in the test on 786-0 renal it was 62.7 µM; in the test with OVCAR-8 ovarian, over 100 µM; in the test on K-562 leukemia, over 100 µM; in the test with TK-10 renal, over 100 µM. The TGI in the test with U251 CNS and with NCI-H460 lung was over 100 µM each time.

(Values after PubChem BioAssay (NCI).)
